Reference: patent US8440671B2, “Compositions comprising a phoshodiesterase-5 inhibitor and their use in methods of treatment” (priority 2007, dated 2013)

Legend:
[1] = test system: subject with Alzheimer's Disease and dementia; conditions: for clinical status changes: cholinesterase inhibitor alone
Source text: A fifth subject was diagnosed with Alzheimer's Disease and dementia and administered a combination of PI-5, SSRI and CI.

[2] = test system: subject with atypical Parkinson's Disease, severe seborrheic dermatitis and scarring facial acne rosacea; type: in vivo
Source text: A third subject was diagnosed with atypical Parkinson's Disease with an initial presentation fifteen years earlier with cogwheel type diffuse tremor of low amplitude, diffuse muscular rigidity, mild bradykinesia, gait abnormalities.
Patient is a non-smoker and social drinker with minimal alcohol consumption and no history of drug abuse. Chronic problems of borderline hypertension (treated with diet and HYTRIN® (terazoin)), benign prostatic hypertrophy (treated with HYTRIN® (terazoin) and voding training), GERD treated intermittently as needed with PRILOSEC® (omeprazole) plus PEPCID® (famotidine) for short periods, DJD of cervical and lumbar spine treated intermittently with physical therapy, TYLENOL® (acetaminophen), occasional VICODIN® (acetaminophen/hydrocodone) as needed.

[3] = test system: subject with Parkinson's Disease; experiment: Example 4: case report, subject with Parkinson's Disease given PI-5, SSRI and DI
Source text: A fourth subject was diagnosed with Parkinson's Disease and administered a combination of PI-5, SSRI and DI.

[4] = test system: subject with rapidly progressive multi-system neurodegenerative disease, facial acne, vitiligo, gingival infections; type: in vivo; conditions: for clinical response to neurological disease, skin and mucous membrane disorders: each drug given individually; for substitution within the oral combination: Viagra 50 mg TID for oral Cialis, Paxil 20 mg TID for Luvox
Source text: A second subject was diagnosed with nonspecific but rapidly progressive multi-system neurodegenerative disease. […] Initial presentation was with abrupt onset dementia with rapid progression over 3-4 months. Severe, generalized myoclonus of high amplitude with ataxia, dyspahagia, central and peripheral respiratory distress (requiring CPAP), dizziness, and hypokinetic rigidity followed some one month later and have continued to progress as well as dementia.
Mild intermittent gingival infections requiring minimal surgical intervention with retraction from tooth line for over ten years.
Patient was a non-smoker with no alcohol or other drug consumption. Patient suffered from coexisting prior problem of chronic atrial fibrillation, currently rate controlled with exercise alone and anticoagulation intermittently with Coumadin.
The twenty four hour doses, put into 7.5 cc of water solution, was also applied topically to scar noted previously. […] Patient also takes Folic acid—1 mg per day, and Vitamin B6.

## COc1cc2c(cc1OC)C(=O)C(CC1CCN(Cc3ccccc3)CC1)C2 (centres unmarked) [ARICEPT® (donepezil), donepezil]
[1]
  clinical status changes: without significant clinical status changes
[1]; two week period, without noticeable changes
  substitution for COGNEX within the combination: successfully substituted

## NC12CC3CC(CC(C3)C1)C2 [Amantadine, amantadine]
[2]; chronic low-dose treatment
  change in seborrheic dermatitis or acne rosacea: No change
  improvement of all symptoms: little or no improvement

## CN1CCc2cccc3c2[C@H]1Cc1ccc(O)c(O)c1-3 [Apomorphine, apomorphine]
[2]; IV, part of work-up
  paradoxical response to IV Apomorphine: decreased blood pressure and worsening of rigidity and tremor

## CC(C)C[C@H]1C(=O)N2CCC[C@H]2[C@]2(O)O[C@](NC(=O)[C@@H]3C=C4c5cccc6[nH]c(Br)c(c56)C[C@H]4N(C)C3)(C(C)C)C(=O)N12 [Bromocriptine, bromocriptine]
[3]; short periods later in disease
  change on short periods of treatment: without significant change

## Nc1c2c(nc3ccccc13)CCCC2 [COGNEX® (tacrine), tacrine]
[4]
  clinical response to neurological disease, skin and mucous membrane disorders: without any clinical response
[3]; added to Luvox, Cialis, Sinemet regimen
  effect on all symptoms when added to the regimen: mild improvements
[3]; human, in vivo
  tolerability when added to the regimen: discontinued secondary to gastrointestinal upset
[1]
  clinical status changes: without significant clinical status changes

## COCCCC/C(=N\OCCN)c1ccc(C(F)(F)F)cc1 [LUVOX® (fluvoxamine), fluvoxamine]
[4]
  clinical response to neurological disease, skin and mucous membrane disorders: without any clinical response

## Fc1ccc([C@@H]2CCNC[C@H]2COc2ccc3c(c2)OCO3)cc1 [Paxil, paroxetine]
[4]
  substitution within the oral combination: equivalently substituted

## CCCc1nn(C)c2c(=O)[nH]c(-c3cc(S(=O)(=O)N4CCN(C)CC4)ccc3OCC)nc12 [VIAGRA® (sildenafil), sildenafil]
[4]
  substitution within the oral combination: equivalently substituted
  clinical response to neurological disease, skin and mucous membrane disorders: without any clinical response
